This passage reports T/C results from PubChem BioAssay AID330 (DTP/NCI, 2004).

In this test the test system is P388 leukemia ip, CD2F1 mice, survival T/C. Description: NCI In Vivo Anticancer Drug Screen. Data for tumor model P388 Leukemia (intraperitoneal) in CD2F1 (CDF1) mice. Conditions: endpoint: median survival time, higher = longer survival. The method in brief:
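Mice carrying the transplanted tumor received test compound or vehicle. Survival was recorded in each group, and the value is the treated-group measurement divided by that of the vehicle-treated control group.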

Setting [1] is: dose: 60.0 mg/kg/injection, schedule: Q01DX005 (ip), vehicle: saline with Tween-80.
Setting [2] is: dose: 120.0 mg/kg/injection, schedule: Q01DX005 (ip), vehicle: saline with Tween-80.
The mark [3] stands for this setting: dose: 240.0 mg/kg/injection, schedule: Q01DX005 (ip), vehicle: saline with Tween-80.
[4] abbreviates: dose: 50.0 mg/kg/injection, schedule: Q01DX005 (ip), vehicle: Klucel (hydroxypropylcellulose) (HPC).
[5] abbreviates: dose: 100.0 mg/kg/injection, schedule: Q01DX005 (ip), vehicle: Klucel (hydroxypropylcellulose) (HPC).
Where [6] appears, read: dose: 200.0 mg/kg/injection, schedule: Q01DX005 (ip), vehicle: Klucel (hydroxypropylcellulose) (HPC).
[7] abbreviates: dose: 50.0 mg/kg/injection, schedule: Q01DX009 (ip), vehicle: Klucel (hydroxypropylcellulose) (HPC).
[8] abbreviates: dose: 100.0 mg/kg/injection, schedule: Q01DX009 (ip), vehicle: Klucel (hydroxypropylcellulose) (HPC).
Where [9] appears, read: dose: 25.0 mg/kg/injection, schedule: Q01DX009 (ip), vehicle: saline.
[10] abbreviates: dose: 50.0 mg/kg/injection, schedule: Q01DX009 (ip), vehicle: saline.
Where [11] appears, read: dose: 100.0 mg/kg/injection, schedule: Q01DX009 (ip), vehicle: saline.
The mark [12] stands for this setting: dose: 200.0 mg/kg/injection, schedule: Q01DX009 (ip), vehicle: saline.
The mark [13] stands for this setting: dose: 200.0 mg/kg/injection, schedule: Q01DX009 (ip), vehicle: Klucel (hydroxypropylcellulose) (HPC).
The mark [14] stands for this setting: dose: 60.0 mg/kg/injection, schedule: Q01DX005 (ip), vehicle: Klucel (hydroxypropylcellulose) (HPC).
Where [15] appears, read: dose: 120.0 mg/kg/injection, schedule: Q01DX005 (ip), vehicle: Klucel (hydroxypropylcellulose) (HPC).
The mark [16] stands for this setting: dose: 240.0 mg/kg/injection, schedule: Q01DX005 (ip), vehicle: Klucel (hydroxypropylcellulose) (HPC).

The structures appear in SMILES notation. Where “and” joins values, the source holds several entries; their conditions need not be identical. Identical values can stand only once. Toxic doses and inconclusive results are not listed.

Consider `NC(COC(c1ccccc1)(c1ccccc1)c1ccccc1)C(=O)O` (stereo not given), for which the T/C is, setting by setting: (dose: 100.0 mg/kg/injection, schedule: Q04DX003 (ip), vehicle: saline) 118 % of control; (dose: 200.0 mg/kg/injection, schedule: Q04DX003 (ip), vehicle: saline) 154 % of control.

For the compound `O=C1Nc2cccnc2NC2=C1CSC2`, the T/C under setting [1] is 110 % of control, the T/C under setting [2] was 97 % of control and the T/C under setting [3] was 98 % of control.

For the compound `CN(NC(=O)C(=O)NCc1ccco1)C(=O)NC1CCCCC1`, the T/C is, setting by setting: under setting [4], 103 % of control; under setting [5], 100 % of control; under setting [6], 96 % of control.

In the case of `NC1[N-]C(C2CCCC[N-]2)CC2CCCCC21.NC1[N-]C(C2CCCC[N-]2)CC2CCCCC21.O=[N+]([O-])O.[Cu+2]` (stereo not given), the T/C was 108 % of control (dose: 6.25 mg/kg/injection, schedule: Q04DX002 (ip), vehicle: suspension in saline) and 109 % of control (dose: 12.5 mg/kg/injection, schedule: Q04DX002 (ip), vehicle: suspension in saline).

Regarding `CCC1COS(=O)(=O)CS(=O)(=O)O1` (stereo not given), the T/C reads like this: under setting [1], 101 % of control; under setting [2], 100 % of control; under setting [3], 105 % of control.

Turning to `O=C(Nc1ccccc1)P(=O)(O)c1ccccc1`, the T/C is, setting by setting: (dose: 12.5 mg/kg/injection, schedule: Q01DX009 (ip), vehicle: Klucel (hydroxypropylcellulose) (HPC)) 93 % of control; (dose: 25.0 mg/kg/injection, schedule: Q01DX009 (ip), vehicle: Klucel (hydroxypropylcellulose) (HPC)) 100 % of control; under setting [7], 97 % of control; under setting [8], 93 % of control.

With `COc1ccc(-c2cc(-c3ccccc3)[nH]c2-c2ccccc2)cc1`, the T/C runs as follows: (dose: 100.0 mg/kg/injection, schedule: Q04DX002 (ip), vehicle: saline) 98 % of control; (dose: 200.0 mg/kg/injection, schedule: Q04DX002 (ip), vehicle: saline) 105 % of control; (dose: 400.0 mg/kg/injection, schedule: Q04DX002 (ip), vehicle: saline) 100 % of control.

Take `COC(=O)Cc1cccc2c(=O)cc(-c3cccs3)oc12`: the T/C is 90 % of control under setting [9]; 97 % of control (dose: 25.0 mg/kg/injection, schedule: Q01DX009 (ip), vehicle: suspension in saline); 105 % of control and 92 % of control under setting [10]; 94 % of control (dose: 50.0 mg/kg/injection, schedule: Q01DX009 (ip), vehicle: suspension in saline); 117 % of control and 97 % of control under setting [11]; 94 % of control (dose: 100.0 mg/kg/injection, schedule: Q01DX009 (ip), vehicle: suspension in saline). In addition, the T/C under setting [12] is 108 % of control and the T/C (dose: 200.0 mg/kg/injection, schedule: Q01DX009 (ip), vehicle: suspension in saline) is 95 % of control.

Take `O=NNc1ncc(Sc2ccccc2)nc1Sc1ccccc1`: the T/C was 103 % of control (dose: 6.25 mg/kg/injection, schedule: Q01DX009 (ip), vehicle: water); 113 % of control (dose: 12.5 mg/kg/injection, schedule: Q01DX009 (ip), vehicle: water); 122 % of control (dose: 25.0 mg/kg/injection, schedule: Q01DX009 (ip), vehicle: water); 106 % of control (dose: 100.0 mg/kg/injection, schedule: Q01DX009 (ip), vehicle: water).

As to `CC[n+]1c(-c2ccccc2)c2cc(N)ccc2c2ccc(N)cc21`, the T/C is 101 % of control (dose: 0.39 mg/kg/injection, schedule: Q04DX003 (ip), vehicle: saline); 103 % of control (dose: 0.39 mg/kg/injection, schedule: Q04DX003 (ip), vehicle: water); 100 % of control (dose: 0.78 mg/kg/injection, schedule: Q04DX003 (ip), vehicle: saline); 104 % of control (dose: 0.78 mg/kg/injection, schedule: Q04DX003 (ip), vehicle: water); 150 % of control (dose: 1.56 mg/kg/injection, schedule: Q01DX009 (ip), vehicle: saline); 106 % of control (dose: 1.56 mg/kg/injection, schedule: Q04DX003 (ip), vehicle: saline). The T/C was 113 % of control (dose: 1.56 mg/kg/injection, schedule: Q04DX003 (ip), vehicle: water); 153 % of control (dose: 3.13 mg/kg/injection, schedule: Q01DX009 (ip), vehicle: saline); 161 % of control (dose: 3.13 mg/kg/injection, schedule: Q01DX009 (ip), vehicle: water); 114 % of control (dose: 3.13 mg/kg/injection, schedule: Q04DX003 (ip), vehicle: saline); 123 % of control (dose: 3.13 mg/kg/injection, schedule: Q04DX003 (ip), vehicle: water); 170 % of control (dose: 6.25 mg/kg/injection, schedule: Q01DX009 (ip), vehicle: saline). The T/C runs as follows: (dose: 18.0 mg/kg/injection, schedule: Q04DX003 (ip), vehicle: saline sonified) 150 % of control; (dose: 25.0 mg/kg/injection, schedule: Q04DX003 (ip), vehicle: saline) 117 % of control; (dose: 27.0 mg/kg/injection, schedule: Q04DX003 (ip), vehicle: saline sonified) 109 % of control.

In the case of `CC(C)CN1CCOCC1`, the T/C under setting [9] was 100 % of control, the T/C under setting [10] was 95 % of control and the T/C under setting [11] was 104 % of control.

As to `N#Cc1ccc(-c2nn[nH]n2)cc1`, the T/C is 102 % of control under setting [4], 95 % of control under setting [5] and 96 % of control under setting [6].

For `COc1ccc(C2=C(Cl)C(=O)N(c3ccc(OC)cc3)C(=O)C2(Cl)Cl)cc1`, the T/C (dose: 100.0 mg/kg/injection, schedule: Q04DX002 (ip), vehicle: Klucel (hydroxypropylcellulose) (HPC)) is 101 % of control; the T/C (dose: 200.0 mg/kg/injection, schedule: Q04DX002 (ip), vehicle: Klucel (hydroxypropylcellulose) (HPC)) is 95 % of control; the T/C (dose: 400.0 mg/kg/injection, schedule: Q04DX002 (ip), vehicle: Klucel (hydroxypropylcellulose) (HPC)) is 111 % of control.

Turning to `CC(=O)/C=C/c1ccc([N+](=O)[O-])cc1`, the T/C reads like this: under setting [7], 100 % of control; under setting [8], 90 % of control; (dose: 100.0 mg/kg/injection, schedule: Q04DX003 (ip), vehicle: Klucel (hydroxypropylcellulose) (HPC)) 91 % of control; under setting [13], 98 % of control; (dose: 200.0 mg/kg/injection, schedule: Q04DX003 (ip), vehicle: Klucel (hydroxypropylcellulose) (HPC)) 89 % of control; (dose: 400.0 mg/kg/injection, schedule: Q04DX003 (ip), vehicle: Klucel (hydroxypropylcellulose) (HPC)) 97 % of control.

With `CN(C)NC(=O)/C=C\C(=O)O`, the T/C by setting is: (dose: 66.0 mg/kg/injection, schedule: Q01DX009 (ip), vehicle: saline) 105 % of control; under setting [11], 100 % of control; (dose: 150.0 mg/kg/injection, schedule: Q01DX009 (ip), vehicle: saline) 100 % of control; under setting [12], 91 % of control.

Consider `CCCCc1ccc2nc(C)cc(N=[N+]=[N-])c2c1`, for which the T/C under setting [1] is 100 % of control and the T/C under setting [2] is 98 % of control.

Regarding `CSc1nc(N)c(NS(=O)(=O)c2ccccc2)c(=O)[nH]1`, the T/C was 92 % of control under setting [14], 91 % of control under setting [15] and 90 % of control under setting [16].

Consider `CC(Oc1ccc(Oc2ccc(Cl)cc2)cc1)C(=O)O` (stereo not given), for which the T/C reads like this: under setting [7], 102 % of control; under setting [8], 90 % of control; under setting [13], 89 % of control.

In the case of `Cc1ccc(-c2nc3scc(C)n3n2)cc1`, the T/C was 100 % of control under setting [14], 96 % of control under setting [15] and 103 % of control under setting [16].

With `c1ccc(CNc2nnc3nc(-c4ccccc4)c(-c4ccccc4)nn23)cc1`, the T/C (dose: 50.0 mg/kg/injection, schedule: Q01DX005 (ip), vehicle: saline with Tween-80) was 117 % of control; the T/C (dose: 100.0 mg/kg/injection, schedule: Q01DX005 (ip), vehicle: saline with Tween-80) was 114 % of control; the T/C (dose: 200.0 mg/kg/injection, schedule: Q01DX005 (ip), vehicle: saline with Tween-80) is 105 % of control.
